The subject of this test is MV-4-11 cells. Description: Gene expression microarray analysis (Affymetrix PrimeView) and GSEA. The format is cell-based, human. On the set-up: RFU PODN (11730768_x_at) / Fold change /veh PODN (11730768_x_at) / RFU LINC00158 (11744669_a_at) / Fold change /veh LINC00158 (11744669_a_at) / RFU DUSP10 (11751237_a_at) / Fold change /veh DUSP10 (11751237_a_at) / RFU ID3 (11757404_x_at) / Fold change /veh ID3 (11757404_x_at) / RFU PLEKHG5 (11737974_s_at) / Fold change /veh PLEKHG5 (11737974_s_at) / RFU LRRC4B (11730491_at) / Fold change /veh LRRC4B (11730491_at) / RFU GIMAP4 (11747438_a_at) / Fold change /veh GIMAP4 (11747438_a_at) / RFU KRT8 (11758183_x_at) / Fold change /veh KRT8 (11758183_x_at) / RFU CNN1 (11734310_a_at) / Fold change /veh CNN1 (11734310_a_at) / RFU VPS37D (11726825_at) / Fold change /veh VPS37D (11726825_at) / RFU C10orf10 (11716522_x_at) / Fold change /veh C10orf10 (11716522_x_at) / RFU KIR2DL2 /// KIR2DL4 /// KIR2DL5A /// KIR2DL5B /// KIR2DS1 /// KIR2DS2 /// KIR2DS3 /// KIR2DS4 /// KIR3DL3 /// KIR3DL3 /// KIR3DS1 (11738374_at) / Fold change /veh KIR2DL2 /// KIR2DL4 /// KIR2DL5A /// KIR2DL5B /// KIR2DS1 /// KIR2DS2 /// KIR2DS3 /// KIR2DS4 /// KIR3DL3 /// KIR3DL3 /// KIR3DS1 (11738374_at) / RFU C1QL1 (11718748_at) / Fold change /veh C1QL1 (11718748_at) / RFU TMPRSS4 (11747572_a_at) / Fold change /veh TMPRSS4 (11747572_a_at) / RFU HAMP (11756126_x_at) / Fold change /veh HAMP (11756126_x_at) / RFU RNFT2 (11725882_a_at) / Fold change /veh RNFT2 (11725882_a_at) / RFU NR4A2 (11747474_a_at) / Fold change /veh NR4A2 (11747474_a_at) / RFU ABCC12 (11746883_a_at) / Fold change /veh ABCC12 (11746883_a_at) / RFU TMEM136 (11760407_x_at) / Fold change /veh TMEM136 (11760407_x_at) / RFU CLDN22 /// WWC2 (11732394_at) / Fold change /veh CLDN22 /// WWC2 (11732394_at) / RFU HLA-DPB1 (11760878_x_at) / Fold change /veh HLA-DPB1 (11760878_x_at) / RFU SPINT1 (11716480_a_at) / Fold change /veh SPINT1 (11716480_a_at) / RFU GAP43 (11754022_s_at) / Fold change /veh GAP43 (11754022_s_at) / RFU A4GNT (11735810_at) / Fold change /veh A4GNT (11735810_at) / RFU PRB3 (11715151_x_at) / Fold change /veh PRB3 (11715151_x_at) / RFU TUBB4B (11761932_at) / Fold change /veh TUBB4B (11761932_at) / RFU CAPN14 (11732068_a_at) / Fold change /veh CAPN14 (11732068_a_at) / RFU TMCC2 (11721928_a_at) / Fold change /veh TMCC2 (11721928_a_at) / RFU IRGQ (11745062_a_at) / Fold change /veh IRGQ (11745062_a_at) / RFU FAM174B (11720279_a_at) / Fold change /veh FAM174B (11720279_a_at) / RFU TMPRSS4 (11748680_a_at) / Fold change /veh TMPRSS4 (11748680_a_at) / RFU FAM212B (11763350_a_at) / Fold change /veh FAM212B (11763350_a_at) / RFU PLEKHG5 (11743358_a_at) / Fold change /veh PLEKHG5 (11743358_a_at) / RFU ZSCAN30 (11745921_a_at) / Fold change /veh ZSCAN30 (11745921_a_at) / RFU CMKLR1 (11741424_a_at) / Fold change /veh CMKLR1 (11741424_a_at) / RFU LOC101060620 /// MAPK8IP1 (11723275_at) / Fold change /veh LOC101060620 /// MAPK8IP1 (11723275_at) / RFU SPTSSB (11747773_x_at) / Fold change /veh SPTSSB (11747773_x_at) / RFU PRSS12 (11739890_at) / Fold change /veh PRSS12 (11739890_at) / RFU BIN1 (11741810_x_at) / Fold change /veh BIN1 (11741810_x_at) / RFU WNT11 (11732464_a_at) / Fold change /veh WNT11 (11732464_a_at) / RFU C10orf10 (11716521_a_at) / Fold change /veh C10orf10 (11716521_a_at) / RFU C5orf56 (11738089_at) / Fold change /veh C5orf56 (11738089_at) / RFU CYB561 (11721691_x_at) / Fold change /veh CYB561 (11721691_x_at) / RFU ANKRD19P (11752326_a_at) / Fold change /veh ANKRD19P (11752326_a_at) / RFU OR2T12 /// OR2T33 /// OR2T8 (11738714_s_at) / Fold change /veh OR2T12 /// OR2T33 /// OR2T8 (11738714_s_at) / RFU VCAN (11748164_a_at) / Fold change /veh VCAN (11748164_a_at) / RFU JSRP1 (11732532_at) / Fold change /veh JSRP1 (11732532_at) / RFU KRTAP10-11 (11738290_x_at) / Fold change /veh KRTAP10-11 (11738290_x_at) / RFU MYO3A (11730013_a_at) / Fold change /veh MYO3A (11730013_a_at) / RFU EBF3 (11725865_a_at) / Fold change /veh EBF3 (11725865_a_at) / RFU CAMK2N1 (11719241_x_at) / Fold change /veh CAMK2N1 (11719241_x_at) / RFU C5orf56 (11738088_a_at) / Fold change /veh C5orf56 (11738088_a_at) / RFU OLFML3 (11715873_a_at) / Fold change /veh OLFML3 (11715873_a_at) / RFU LOC100653217 /// NTM (11731650_a_at) / Fold change /veh LOC100653217 /// NTM (11731650_a_at) / RFU MAPK11 (11762145_a_at) / Fold change /veh MAPK11 (11762145_a_at) / RFU FIZ1 (11724087_x_at) / Fold change /veh FIZ1 (11724087_x_at) / RFU OASL (11726364_x_at) / Fold change /veh OASL (11726364_x_at) / RFU SOX15 (11748057_x_at) / Fold change /veh SOX15 (11748057_x_at) / RFU CD79A (11719716_a_at) / Fold change /veh CD79A (11719716_a_at) / RFU HIST1H1D (11736915_at) / Fold change /veh HIST1H1D (11736915_at) / RFU CASKIN2 (11723855_a_at) / Fold change /veh CASKIN2 (11723855_a_at) / RFU LOC730098 (11760151_x_at) / Fold change /veh LOC730098 (11760151_x_at) / RFU OR4N2 (11742367_at) / Fold change /veh OR4N2 (11742367_at) / RFU PRRT2 (11749266_a_at) / Fold change /veh PRRT2 (11749266_a_at) / RFU SNX32 (11753110_a_at) / Fold change /veh SNX32 (11753110_a_at) / RFU CDHR5 (11726645_a_at) / Fold change /veh CDHR5 (11726645_a_at) / RFU RCAN1 (11760418_a_at) / Fold change /veh RCAN1 (11760418_a_at) / RFU FAM167A (11723789_a_at) / Fold change /veh FAM167A (11723789_a_at) / RFU FAM26E (11764081_at) / Fold change /veh FAM26E (11764081_at) / RFU ISYNA1 (11749810_s_at) / Fold change /veh ISYNA1 (11749810_s_at) / RFU ACY1 (11761880_at) / Fold change /veh ACY1 (11761880_at) / RFU 11764098_at / Fold change /veh 11764098_at / RFU SAMD14 (11745864_x_at) / Fold change /veh SAMD14 (11745864_x_at) / RFU NPB (11741838_a_at) / Fold change /veh NPB (11741838_a_at) / RFU TMPRSS6 (11731388_a_at) / Fold change /veh TMPRSS6 (11731388_a_at) / RFU KRTAP10-2 (11738614_at) / Fold change /veh KRTAP10-2 (11738614_at) / RFU ARHGAP8 /// PRR5-ARHGAP8 (11727945_x_at) / Fold change /veh ARHGAP8 /// PRR5-ARHGAP8 (11727945_x_at) / RFU KRTAP5-7 /// NADSYN1 (11734609_at) / Fold change /veh KRTAP5-7 /// NADSYN1 (11734609_at) / RFU RASL12 (11751679_a_at) / Fold change /veh RASL12 (11751679_a_at) / RFU CDKN2B (11736163_a_at) / Fold change /veh CDKN2B (11736163_a_at) / RFU PRF1 (11729649_at) / Fold change /veh PRF1 (11729649_at) / RFU, ZNF638 /// ZNF638-IT1 / Fold change vs veh, ZNF638 /// ZNF638-IT1 / RFU, PANK3 / Fold change vs veh, PANK3 / RFU, SH3YL1 / Fold change vs veh, SH3YL1 / RFU, ZEB2 / Fold change vs veh, ZEB2 / RFU, NRIP1 / Fold change vs veh, NRIP1 / RFU, PTTG1IP / Fold change vs veh, PTTG1IP / RFU, CAPN2 / Fold change vs veh, CAPN2 / RFU, MED14 / Fold change vs veh, MED14 / RFU, SNORA58 / Fold change vs veh, SNORA58 / RFU, C1orf63 / Fold change vs veh, C1orf63 / RFU, LRRFIP1 / Fold change vs veh, LRRFIP1 / RFU, NDUFAF7 / Fold change vs veh, NDUFAF7 / RFU, SLC12A2 / Fold change vs veh, SLC12A2 / RFU, IBTK / Fold change vs veh, IBTK / RFU, ESF1 / Fold change vs veh, ESF1 / Fold change vs veh, TMEM50B / RFU, TAOK1 / Fold change vs veh, TAOK1 / RFU, ACBD3 / Fold change vs veh, ACBD3 / RFU, TMA16 / Fold change vs veh, TMA16 / RFU, RWDD3 / Fold change vs veh, RWDD3 / RFU, BCAT1 / Fold change vs veh, BCAT1 / RFU, EDEM3 / Fold change vs veh, EDEM3 / RFU, TMEM33 / Fold change vs veh, TMEM33 / RFU, WDR75 / Fold change vs veh, WDR75 / RFU, AHCTF1 / Fold change vs veh, AHCTF1 / RFU, TFRC / Fold change vs veh, TFRC / RFU, ZDHHC17 / Fold change vs veh, ZDHHC17 / RFU, NOM1 / Fold change vs veh, NOM1 / RFU, ARL8B / Fold change vs veh, ARL8B / RFU, ZBTB11 / Fold change vs veh, ZBTB11 / RFU, TAMM41 / Fold change vs veh, TAMM41 / RFU, KIAA1704 /// LOC100996395 / Fold change vs veh, KIAA1704 /// LOC100996395 / RFU, ING1 / Fold change vs veh, ING1 / RFU, TRMT61B / Fold change vs veh, TRMT61B / RFU, FUBP3 / Fold change vs veh, FUBP3 / RFU, TP53 / Fold change vs veh, TP53 / RFU, TNKS2 / Fold change vs veh, TNKS2 / RFU, ZFP14 / Fold change vs veh, ZFP14 / RFU, ACTR2 / Fold change vs veh, ACTR2 / RFU, PPP3R1 / Fold change vs veh, PPP3R1 / RFU, PIK3R1 / Fold change vs veh, PIK3R1 / RFU, HNRNPA1 / Fold change vs veh, HNRNPA1 / RFU, RNF170 / Fold change vs veh, RNF170 / RFU, ZNF28 / Fold change vs veh, ZNF28 / RFU, RNGTT / Fold change vs veh, RNGTT / RFU, OGT / Fold change vs veh, OGT / RFU, BRD1 / Fold change vs veh, BRD1 / RFU, MARS / Fold change vs veh, MARS / RFU, ZNF655 / Fold change vs veh, ZNF655 / RFU, FAHD1 / Fold change vs veh, FAHD1 / RFU, BDP1 / Fold change vs veh, BDP1 / RFU, LRRCC1 / Fold change vs veh, LRRCC1 / RFU, ARID1A / Fold change vs veh, ARID1A / RFU, ZNF146 / Fold change vs veh, ZNF146 / RFU, ZNF330 / Fold change vs veh, ZNF330 / RFU, GPN3 / Fold change vs veh, GPN3 / RFU, C9orf123 / Fold change vs veh, C9orf123 / RFU, N4BP2L2 / Fold change vs veh, N4BP2L2 / RFU, ARFIP1 / Fold change vs veh, ARFIP1 / RFU, FAM179B / Fold change vs veh, FAM179B / RFU, BCL10 / Fold change vs veh, BCL10 / RFU, UHRF1BP1L / Fold change vs veh, UHRF1BP1L / RFU, BET1 / Fold change vs veh, BET1 / RFU, CNOT2 / Fold change vs veh, CNOT2 / RFU, ZNF268 / Fold change vs veh, ZNF268 / Fold change vs veh, ZNF507 / RFU, DGCR2 / Fold change vs veh, DGCR2 / RFU, WDSUB1 / Fold change vs veh, WDSUB1 / Fold change vs veh, HSP90B1 /// MIR3652 / RFU, ADSS / Fold change vs veh, ADSS / RFU, GK / Fold change vs veh, GK / RFU, ZNF148 / Fold change vs veh, ZNF148 / RFU, TAF9 / Fold change vs veh, TAF9 / RFU, SLC1A5 / Fold change vs veh, SLC1A5 / RFU, SLMO2 / Fold change vs veh, SLMO2 / RFU, ABCC4 / Fold change vs veh, ABCC4 / RFU, LOC101060439 /// RAP1B / Fold change vs veh, LOC101060439 /// RAP1B / RFU, RFX7 / Fold change vs veh, RFX7 / RFU, GTPBP10 / Fold change vs veh, GTPBP10 / RFU, CNEP1R1 / Fold change vs veh, CNEP1R1 / RFU, BIVM-ERCC5 /// ERCC5 / Fold change vs veh, BIVM-ERCC5 /// ERCC5 / RFU, ILF3 / Fold change vs veh, ILF3 / RFU 11762660_at / Fold change /veh 11762660_at / RFU VCAN (11757783_s_at) / Fold change /veh VCAN (11757783_s_at) / RFU DDX43 (11728927_at) / Fold change /veh DDX43 (11728927_at) / RFU KRT8 (11758188_x_at) / Fold change /veh KRT8 (11758188_x_at) / RFU NKD1 (11759106_at) / Fold change /veh NKD1 (11759106_at) / RFU SRD5A1 (11742802_a_at) / Fold change /veh SRD5A1 (11742802_a_at) / RFU TPSAB1 /// TPSB2 (11721975_s_at) / Fold change /veh TPSAB1 /// TPSB2 (11721975_s_at) / RFU GSTM3 (11746129_a_at) / Fold change /veh GSTM3 (11746129_a_at) / RFU IL23R (11737362_x_at) / Fold change /veh IL23R (11737362_x_at) / RFU TMEM51 (11727254_a_at) / Fold change /veh TMEM51 (11727254_a_at) / RFU PIWIL2 (11732686_x_at) / Fold change /veh PIWIL2 (11732686_x_at) / RFU ORM1 (11744905_x_at) / Fold change /veh ORM1 (11744905_x_at) / RFU CCDC152 (11743942_at) / Fold change /veh CCDC152 (11743942_at) / RFU ECM1 (11717891_a_at) / Fold change /veh ECM1 (11717891_a_at) / RFU IL23R (11748794_a_at) / Fold change /veh IL23R (11748794_a_at) / RFU TNFAIP8L3 (11732012_x_at) / Fold change /veh TNFAIP8L3 (11732012_x_at) / RFU MBOAT4 (11741988_at) / Fold change /veh MBOAT4 (11741988_at) / RFU 11764193_at / Fold change /veh 11764193_at / RFU TMEM53 (11763286_at) / Fold change /veh TMEM53 (11763286_at) / RFU MAGEB2 (11727129_at) / Fold change /veh MAGEB2 (11727129_at) / RFU TMEM200A (11744735_a_at) / Fold change /veh TMEM200A (11744735_a_at) / RFU CCDC152 (11751479_a_at) / Fold change /veh CCDC152 (11751479_a_at) / RFU FAM211A (11726209_a_at) / Fold change /veh FAM211A (11726209_a_at) / RFU RGS16 (11746705_a_at) / Fold change /veh RGS16 (11746705_a_at) / RFU VCAN (11755009_s_at) / Fold change /veh VCAN (11755009_s_at) / RFU RHOB (11743442_s_at) / Fold change /veh RHOB (11743442_s_at) / RFU RGS16 (11720943_a_at) / Fold change /veh RGS16 (11720943_a_at) / RFU RGS16 (11720944_at) / Fold change /veh RGS16 (11720944_at) / RFU, VPS4B / Fold change vs veh, VPS4B / RFU, CREB1 / Fold change vs veh, CREB1 / RFU, DNAJC13 / Fold change vs veh, DNAJC13 / RFU, GNAQ / Fold change vs veh, GNAQ / RFU, CDK5R1 / Fold change vs veh, CDK5R1 / RFU, ZRANB3 / Fold change vs veh, ZRANB3 / RFU, CUL4A / Fold change vs veh, CUL4A / RFU, CCNY / Fold change vs veh, CCNY / RFU, UFL1 / Fold change vs veh, UFL1 / RFU, COG3 / Fold change vs veh, COG3 / RFU, DIAPH2 / Fold change vs veh, DIAPH2 / RFU, SKA2 / Fold change vs veh, SKA2 / RFU, AFF3 / Fold change vs veh, AFF3 / RFU, LMF1 / Fold change vs veh, LMF1 / RFU, IPO11 / Fold change vs veh, IPO11 / RFU, DFFB / Fold change vs veh, DFFB / RFU, FOXP1 / Fold change vs veh, FOXP1 / RFU, CARD8 / Fold change vs veh, CARD8 / RFU, STRN3 / Fold change vs veh, STRN3 / RFU, ADK / Fold change vs veh, ADK / RFU, RASSF2 / Fold change vs veh, RASSF2 / RFU, WIPF1 / Fold change vs veh, WIPF1 / RFU, LARP1B / Fold change vs veh, LARP1B / RFU, RASA1 / Fold change vs veh, RASA1 / RFU, RB1 / Fold change vs veh, RB1 / RFU, PPFIA1 / Fold change vs veh, PPFIA1 / RFU, MAT2A / Fold change vs veh, MAT2A / RFU, CCT5 / Fold change vs veh, CCT5 / RFU, WDR92 / Fold change vs veh, WDR92 / RFU, CUX1 / Fold change vs veh, CUX1 / RFU, TTC7A / Fold change vs veh, TTC7A / RFU, TMEM135 / Fold change vs veh, TMEM135 / RFU, DEPTOR / Fold change vs veh, DEPTOR / RFU, CPM / Fold change vs veh, CPM / RFU, DNAJB6 / Fold change vs veh, DNAJB6 / RFU, CACNA2D3 / Fold change vs veh, CACNA2D3 / RFU, DTX4 / Fold change vs veh, DTX4 / RFU, TFCP2 / Fold change vs veh, TFCP2 / RFU, GMCL1 /// GMCL1P1 / Fold change vs veh, GMCL1 /// GMCL1P1 / RFU, AEBP2 / Fold change vs veh, AEBP2 / RFU, SNHG1 /// SNORD22 /// SNORD25 /// SNORD26 /// SNORD27 /// SNORD28 /// SNORD29 /// SNORD31 / Fold change vs veh, SNHG1 /// SNORD22 /// SNORD25 /// SNORD26 /// SNORD27 /// SNORD28 /// SNORD29 /// SNORD31 / Fold change (Aza/veh), C12orf56 (ProbeSet 11735607_a_at) / Fold change (ACY-1035/veh), C12orf56 (ProbeSet 11735607_a_at) / Fold change (Aza/veh), FGFR1OP (ProbeSet 11751329_s_at) / Fold change (ACY-1035/veh), FGFR1OP (ProbeSet 11751329_s_at) / Fold change (Aza/veh), VPS36 (ProbeSet 11739960_a_at) / Fold change (ACY-1035/veh), VPS36 (ProbeSet 11739960_a_at) / RFU SYPL1 (11715823_x_at) / Fold change /veh SYPL1 (11715823_x_at) / RFU IGFBP7 (11715501_s_at) / Fold change /veh IGFBP7 (11715501_s_at) / RFU REEP3 (11722064_at) / Fold change /veh REEP3 (11722064_at) / RFU IGLL1 (11728026_x_at) / Fold change /veh IGLL1 (11728026_x_at): dose or concentration left out as unconfirmed. The settings on record: MV-4-11 cells, 48 hours.

These results are taken from publication PMC5218480 (PLoS ONE, 2017).

With `Nc1ccc(-c2cccs2)cc1NC(=O)c1ccc2c(c1)cc(C1CC1)n2CCN1CCOCC1` [ACY-1035], the “RFU RHOB (11743442_s_at)” value amounted to 104.18 RFU.
